By Km is commonly meant the substrate concentration at which the rate is half of its maximum.

“Also recorded” adds a separate entry of the source.

Data set [1] can be described thus: Degradation in hydrochloric acid at 90-100 C based on ammonia formation. It counts as physicochemical. Particulars: 30% hydrochloric acid, 90 C, 3 hours.
Data set [2] in a line: Stability of N-acetylglucosamine in M9A medium.
Another data set relates to E. coli 7107-18. Put plainly: Effects of N-acetyl glucosamine on E. coli 7107-18. The format is cell-based. Particulars: 62 g/L N-acetyl glucosamine in M9A-glucose (40 g/L), also medium pre-incubated more than eight hours. The source says:
Cells were inoculated into […]-glucose (40 g/L) containing 62 g/L N-acetyl glucosamine.

Data set [3] in a line: Stability of NAG in fermentation at 37 C and pH 7.0. The format is physicochemical. Particulars: after cessation of glucose feed at 37 C and pH 7.0. The source says: The use of lower temperature and pH were key factors in stabilizing the GLcN fermentation, primarily due to the labile nature of GLcN at higher pH and temperature. However, it was shown that NAG was stable at neutral pH. Fermentation for NAG production was operated in the pH range of 6.7 to 7.0 throughout the program.

Data set [4] can be described thus: Solubility of N-acetylglucosamine in water miscible solvents. Particulars: IPA, ethanol, methanol, acetone, tetrahydrofuran, dimethylsulfoxide, dimethylformamide, dioxane, acetonitrile. It counts as physicochemical. The source says: Recovering N-acetylglucosamine-containing solids from the fermentation broth can be enhanced by contacting N-acetylglucosamine in the broth with a water miscible solvent. […] Therefore, by introduction of such a water miscible solvent into the broth, the N-acetylglucosamine will become less soluble and will further recovery.

Data set [5] can be described thus: Heat stability of purified solid N-acetylglucosamine at 105 C. It counts as physicochemical. Particulars: 98% pure sample, 2 hours at 105 C.
In data set [6] the target is T1, E. coli glucosamine synthase GlmS*54 (Escherichia coli, UniProt P17169, A39T/G472S/R250C).
T1 construct: made in house; host or cells: E. coli 7107-18 (printed '7017-18'; T7-glmS*54 integrated at galK) and strains derived from it; crude extract
Put plainly: Effects of phosphorylated sugars on glucosamine synthase. The format is biochemical. The procedure:
Glucosamine synthetase activity was examined in the presence of various phosphorylated sugars. Crude enzyme extracts was prepared from cells of 7017-18 grown in shake flasks for 24 hours with lactose induction.

In data set [7] the target is phosphoglucoisomerase (Pgi) (Escherichia coli, UniProt P0A6T1). Put plainly: Effect of phosphorylated amino sugars on phosphoglucoisomerase activity. The format is biochemical. The settings on record: in vitro, FIG. 15. The source says:
Therefore, effects of glucosamine-6-P and N-acetylglucosamine-6-P on several of the enzymes were examined.

In data set [8] the target is glucosamine N-acetyltransferase (Saccharomyces cerevisiae, UniProt P43577). Put plainly: Product inhibition of glucosamine N-acetyltransferase. The format is biochemical.
The target in data set [9] is glucose-6-P dehydrogenase (zwf) (Escherichia coli, UniProt P0AC53, A9V). Nature of the data set: Effect of phosphorylated amino sugars on glucose-6-P dehydrogenase. It counts as biochemical. The settings on record: in vitro, FIG. 16.
Substrate in data set [10]: O=P(O)(O)OC[C@H]1OC(O)(CO)[C@@H](O)[C@@H]1O
Nature of the data set: GlmS (glucosamine synthase) inhibition and Michaelis-Menten kinetics, crude extract of strain 2123-12. It counts as biochemical, Escherichia coli. Particulars: other: crude extracts, nonlinear regression. The protocol:
(§1) Different glucosamine synthetase enzymes, including native B. subtillus GlmS, native E. coli GlmS and mutant E. coli GlmS, were studied in vitro. Cells of various E. coli strains were grown in the M9A medium, harvested, and frozen. Cells extracts were prepared and the glucosamine synthetases were characterized and compared.
(§2) Enzyme sensitivities to the reaction product glucosamine-6-P were examined. […] This figure highlights the dramatic difference between the wild type GlmS and these mutant GlmS strains.
(§3) The Mutants 2123-54 and the B. subtilis enzyme have higher Ki values (Table 6). Measured Ki constants for several of these mutants are 4 to 8 times the value for the native enzyme in strain 2123-12. From shake flask studies it is apparent that decreased sensitivity to glucosamine-6-P allows higher glucosamine levels to accumulate.
(§4) These values are slightly higher than those obtained with the native enzyme.

Substrate in data set [11]: NC(=O)CC[C@H](N)C(=O)O
The data set is described as above. It counts as biochemical, Escherichia coli. Particulars: other: crude extracts, nonlinear regression. The protocol:
as §1, §2, §3, §4

Substrate in data set [12]: O=P(O)(O)OC[C@H]1OC(O)(CO)[C@@H](O)[C@@H]1O
Put plainly: GlmS inhibition and Michaelis-Menten kinetics, crude extract of strain 2123-54. The settings on record: other: crude extracts. The format is biochemical, Escherichia coli. The protocol:
as §1, §2, §3, §4

Substrate in data set [13]: NC(=O)CC[C@H](N)C(=O)O
The description is as above. It counts as biochemical, Escherichia coli. Particulars: other: crude extracts. The procedure:
as §1, §2, §3, §4

The subject of data set [14] is glucosamine synthetase (GlmS). The format is biochemical, E. coli; B. subtilis. Particulars: crude extracts.
Data set [15] concerns glucosamine synthetase (GlmS). Put plainly: Sensitivity of GlmS enzymes to inhibition by glucosamine-6-P (initial velocity, Ki). It counts as biochemical, E. coli; B. subtilis. Particulars: 0-30 mM glucosamine-6-P. The protocol:
as §1
Enzyme sensitivities to the reaction product glucosamine-6-P were examined.

In data set [16] the test system is glucosamine synthetase (GlmS). Put plainly: Thermal stability of GlmS enzymes (denaturation at 50 C). Particulars: crude extracts incubated at 50 C, sampled over 90 minutes, assayed at 25 C. It counts as biochemical, E. coli. The procedure: Denaturation at 50° C. was used to measure possible differences in thermal stability of different GlmS enzymes. Crude extracts were incubated at 50° C. and sampled over a 90-minute period. The samples were assayed for glucosamine synthetase activity at 25° C. with saturating levels of all substrates.

Chain of phosphoglucoisomerase (Pgi) (P0A6T1 whole entry): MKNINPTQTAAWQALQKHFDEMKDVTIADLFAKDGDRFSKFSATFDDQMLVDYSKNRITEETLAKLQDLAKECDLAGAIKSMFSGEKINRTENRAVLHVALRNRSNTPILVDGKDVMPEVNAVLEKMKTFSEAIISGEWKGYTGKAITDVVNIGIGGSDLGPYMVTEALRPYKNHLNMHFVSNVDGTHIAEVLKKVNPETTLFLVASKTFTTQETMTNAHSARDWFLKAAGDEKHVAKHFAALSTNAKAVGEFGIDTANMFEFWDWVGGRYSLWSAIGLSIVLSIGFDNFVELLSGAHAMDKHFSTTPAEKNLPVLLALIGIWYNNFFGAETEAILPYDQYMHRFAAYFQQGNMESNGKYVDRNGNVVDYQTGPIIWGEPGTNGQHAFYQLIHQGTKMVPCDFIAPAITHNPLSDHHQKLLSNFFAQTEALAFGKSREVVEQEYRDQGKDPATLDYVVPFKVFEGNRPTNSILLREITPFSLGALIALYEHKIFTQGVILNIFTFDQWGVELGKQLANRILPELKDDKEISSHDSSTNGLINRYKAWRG
Chain of glucose-6-P dehydrogenase (zwf) (P0AC53 whole entry A9V): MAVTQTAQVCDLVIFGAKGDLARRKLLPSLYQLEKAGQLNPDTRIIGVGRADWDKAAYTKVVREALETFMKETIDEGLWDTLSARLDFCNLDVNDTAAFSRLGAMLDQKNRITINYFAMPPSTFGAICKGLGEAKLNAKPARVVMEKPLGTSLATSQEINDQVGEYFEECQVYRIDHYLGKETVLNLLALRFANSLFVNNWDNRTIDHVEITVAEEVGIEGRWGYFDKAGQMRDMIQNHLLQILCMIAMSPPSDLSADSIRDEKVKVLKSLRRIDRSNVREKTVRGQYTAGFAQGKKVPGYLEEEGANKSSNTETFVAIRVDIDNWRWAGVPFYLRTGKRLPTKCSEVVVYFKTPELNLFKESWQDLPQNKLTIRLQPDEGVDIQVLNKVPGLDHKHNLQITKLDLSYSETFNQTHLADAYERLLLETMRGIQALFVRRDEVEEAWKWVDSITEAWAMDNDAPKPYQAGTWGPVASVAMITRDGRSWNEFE
Chain of glucosamine N-acetyltransferase (P43577 whole entry): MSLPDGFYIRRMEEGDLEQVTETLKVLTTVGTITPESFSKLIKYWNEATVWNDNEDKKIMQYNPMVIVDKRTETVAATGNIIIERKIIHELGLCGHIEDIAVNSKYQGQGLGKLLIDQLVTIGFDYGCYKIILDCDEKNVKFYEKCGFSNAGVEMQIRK

On to `CC(=O)N[C@@H](C=O)[C@@H](O)[C@H](O)[C@H](O)CO` [N-acetylglucosamine, 2-acetamido-2-deoxy-D-glucose], for which, in [1], the “degradation based on ammonia levels” value was “around 3.5%”. In addition, the “drop in pH during incubation” value in [2] was “no significant drop in pH”. Further, in [2] (80 and 40 g l-1, pH 5.5 and 7.0, M9A without glucose, two days), the “degradation of N-acetyl glucosamine” value was “No significant degradation”. For the same molecule, the amber color formation entry in data set [2] (M9A medium, 48 hours) is “No such color formation”. Besides, the growth inhibition result with E. coli 7107-18 is “No significant growth inhibition”. In data set [3], the “time NAG was stable” value is “at least 50 hours”. The “solubility in water miscible solvents” value in [4] is “very insoluble”. Moreover, in data set [5], the “color change on heating” value was “turned light brown” and the “weight loss on heating” value is 4.7%.
In [6], `CC(=O)N[C@H]1C(O)O[C@H](COP(=O)(O)O)[C@@H](O)[C@@H]1O` (stereo partly drawn) [N-acetylglucosamine-6-P, N-acetylglucosamine-6-phosphate] yielded an activity at 10000 µM of 100% and an activity at 20000 µM of 100%. The “inhibition of phosphoglucoisomerase (Pgi)” value in data set [7] is “significantly less so; also recorded: does not significantly inhibit”. Moreover, in data set [8], the “product inhibition of glucosamine N-acetyltransferase” value is given as “did not show any significant product inhibition”. The “inhibition of glucose-6-P dehydrogenase (zwf)” value in data set [9] is given as “does not significantly inhibit”.

B1: E. coli GlmS (glucosamine-6-phosphate synthase), wild type, SEQ ID NO:2 (strain 2123-12) (Escherichia coli K-12) (protein)
chain: CGIVGAIAQRDVAEILLEGLRRLEYRGYDSAGLAVVDAEGHMTRLRRLGKVQMLAQAAEEHPLHGGTGIAHTRWATHGEPSEVNAHPHVSEHIVVVHNGIIENHEPLREELKARGYTFVSETDTEVIAHLVNWELKQGGTLREAVLRAIPQLRGAYGTVIMDSRHPDTLLAARSGSPLVIGLGMGENFIASDQLALLPVTRRFIFLEEGDIAEITRRSVNIFDKTGAEVKRQDIESNLQYDAGDKGIYRHYMQKEIYEQPNAIKNTLTGRISHGQVDLSELGPNADELLSKVEHIQILACGTSYNSGMVSRYWFESLAGIPCDVEIASEFRYRKSAVRRNSLMITLSQSGETADTLAGLRLSKELGYLGSLAICNVPGSSLVRESDLALMTNAGTEIGVASTKAFTTQLTVLLMLVAKLSRLKGLDASIEHDIVHGLQALPSRIEQMLSQDKRIEALAEDFSDKHHALFLGRGDQYPIALEGALKLKEISYIHAEAYAAGELKHGPLALIDADMPVIVVAPNNELLEKLKSNIEEVRARGGQLYVFADQDAGFVSSDNMHIIEMPHVEEVIAPIFYTVPLQLLAYHVALIKGTDVDQPRNLAKSVTVE
notes: made in house; host or cells: E. coli strain 2123-12 (T7-glmS integrated in the chromosome), crude cell extract
As for B1, the Km in [10] is 200 µM; in data set [11], 170 µM.

B2: E. coli GlmS mutant GlmS*54, SEQ ID NO:6 (Ala39Thr, Arg250Cys, Gly472Ser) (strain 2123-54) (Escherichia coli K-12; A39T/G472S/R250C) (protein)
chain: CGIVGAIAQRDVAEILLEGLRRLEYRGYDSAGLAVVDTEGHMTRLRRLGKVQMLAQAAEEHPLHGGTGIAHTRWATHGEPSEVNAHPHVSEHIVVVHNGIIENHEPLREELKARGYTFVSETDTEVIAHLVNWELKQGGTLREAVLRAIPQLRGAYGTVIMDSRHPDTLLAARSGSPLVIGLGMGENFIASDQLALLPVTRRFIFLEEGDIAEITRRSVNIFDKTGAEVKRQDIESNLQYDAGDKGIYCHYMQKEIYEQPNAIKNTLTGRISHGQVDLSELGPNADELLSKVEHIQILACGTSYNSGMVSRYWFESLAGIPCDVEIASEFRYRKSAVRRNSLMITLSQSGETADTLAGLRLSKELGYLGSLAICNVPGSSLVRESDLALMTNAGTEIGVASTKAFTTQLTVLLMLVAKLSRLKGLDASIEHDIVHGLQALPSRIEQMLSQDKRIEALAEDFSDKHHALFLSRGDQYPIALEGALKLKEISYIHAEAYAAGELKHGPLALIDADMPVIVVAPNNELLEKLKSNIEEVRARGGQLYVFADQDAGFVSSDNMHIIEMPHVEEVIAPIFYTVPLQLLAYHVALIKGTDVDQPRNLAKSVTVE
notes: made in house; host or cells: E. coli strain 2123-54 (lacZ::T7-glmS*54), crude cell extract
Regarding B2, the Km was 640 µM in data set [12] and 730 µM in data set [13].

B3: Wild type Bacillus GlmS: wild-type Bacillus subtilis glucosamine-6-phosphate synthase (SEQ ID NO:16), expressed in E. coli strain 7107-24 (protein, listed as Bacillus subtilis)
chain: MCGIVGYIGQLDAKEILLKGLEKLEYRGYDSAGIAVANEQGIHVFKEKGRIADLREVVDANVEAKAGIGHTRWATHGEPSYLNAHPHQSALGRFTLVHNGVIENYVQLKQEYLQDVELKSDTDTEVVVQVIEQFVNGGLETEEAFRKTLTLLKGSYAIALFDNDNRETIFVAKNKSPLLVGLGDTFNVVASDAMAMLQVTNEYVELMDKEMVIVTDDQVVIKNLDGDVITRASYIAELDASDIEKGTYPHYMLKETDEQPVVMRKIIQTYQDENGKLSVPGDIAAAVAEADRIYIIGCGTSYHAGLVGKQYIEMWANVPVEVHVASEFSYNMPLLSKKPLFIFLSQSGETADSRAVLVQVKALGHKALTITNVPGSTLSREADYTLLLHAGPEIAVASTKAYTAQIAVLAVLASVAADKNGINIGFDLVKELGIAANAMEALCDQKDEMEMIAREYLTVSRNAFFIGRGLDYFVCVEGALKLKEISYIQAEGFAGGELKHGTIALIEQGTPVFALATQEHVNLSIRGNVKEVAARGANTCIISLKGLDDADDRFVLPEVNPALAPLVSVVPLQLIAYYAALHRGCDVDKPRNLAKSVTVE
As for B3, the “Km (fructose-6-P)” value in data set [14] was “very similar to the mutant E. coli enzyme GlmS*54”. For the same molecule, the “sensitivity to GlcN-6-P inhibition / product resistance (in words)” value in [15] is given as “product resistance very comparable to the E. coli mutant GlmS enzymes”.

B4: WT E. coli GlmS: wild-type E. coli glucosamine-6-phosphate synthase (SEQ ID NO:2), expressed in strain 2123-12 (protein, listed as Escherichia coli)
chain: MCGIVGAIAQRDVAEILLEGLRRLEYRGYDSAGLAVVDAEGHMTRLRRLGKVQMLAQAAEEHPLHGGTGIAHTRWATHGEPSEVNAHPHVSEHIVVVHNGIIENHEPLREELKARGYTFVSETDTEVIAHLVNWELKQGGTLREAVLRAIPQLRGAYGTVIMDSRHPDTLLAARSGSPLVIGLGMGENFIASDQLALLPVTRRFIFLEEGDIAEITRRSVNIFDKTGAEVKRQDIESNLQYDAGDKGIYRHYMQKEIYEQPNAIKNTLTGRISHGQVDLSELGPNADELLSKVEHIQILACGTSYNSGMVSRYWFESLAGIPCDVEIASEFRYRKSAVRRNSLMITLSQSGETADTLAGLRLSKELGYLGSLAICNVPGSSLVRESDLALMTNAGTEIGVASTKAFTTQLTVLLMLVAKLSRLKGLDASIEHDIVHGLQALPSRIEQMLSQDKRIEALAEDFSDKHHALFLGRGDQYPIALEGALKLKEISYIHAEAYAAGELKHGPLALIDADMPVIVVAPNNELLEKLKSNIEEVRARGGQLYVFADQDAGFVSSDNMHIIEMPHVEEVIAPIFYTVPLQLLAYHVALIKGTDVDQPRNLAKSVTVE
As for B4, in data set [16], the “thermal stability at 50 C” value is “little significant difference in thermal stability”.

Source of the values: US8124381B2, “Process and materials for production of glucosamine and N-acetylglucosamine” (Arkion Life Sciences, priority 2002, dated 2012).
